According to patent publication US7759346B2, “[[2-(amino-3,4-dioxo-1-cyclobuten-1-yl)amino]alkyl]-acid derivatives for the treatment of pain” (priority 2001, dated 2010):
Where two headings read alike, the source gives them in different places.

What was measured:
Spraque-Dawley rats [1] = assay: Prostaglandin E2-induced thermal hypersensitivity, warm-water tail withdrawal, single compound studies; type: in vivo, rat; conditions: for % MPE (reversal of PGE2-induced thermal hypersensitivity): given 30 min before PGE2
Method: Ketamine and dizocilpine are high affinity use-dependent NMDA receptor channel blockers, while memantine is a moderate affinity use-dependent NMDA receptor channel blocker. CGS-19755 is a competitive NMDA antagonist and ifenprodil is a […] polyamine antagonist. Test Method 1: Prostaglandin E2-Induced Thermal Hypersensitivity.
(§1) The terminal 10 cm of the tail was placed into a thermos bottle containing water warmed to 38, 42, 46, 50, 54, or 58° C. The latency in seconds for the animal to remove the tail from the water was used as a measure of nociception.
(§2) Following the assessment of baseline thermal sensitivity, thermal hypersensitivity was produced by a 50 μL injection of 0.1 mg prostaglandin E2 (PGE2) into the terminal 1 cm of the tail. Temperature-effect curves were generated before (baseline) and after (15, 30, 60, 90 and 120 min) the PGE2 injection.
Single compound studies. The ability of drugs to reverse PGE2-induced thermal hypersensitivity was assessed using a single dose time-course procedure. Under this procedure, a single dose of the compound to be tested was administered intraperitoneally (IP), orally (PO) or intranasally (IN) 30 min before the injection of PGE2. […] sensitivity was assessed 30 min after PGE2 injection.
(§3) Test Method 1 Data Analysis—The temperature that produced a half-maximal increase in the tail-withdrawal latency (i.e., T10) was calculated from each temperature-effect curve. The T10 was determined by interpolation from a line drawn between the point above and the point below 10 sec on the temperature-effect curve. For these studies, thermal hypersensitivity was defined as a leftward shift in the temperature-effect curve and a decrease in the T10 value. Reversal of thermal hypersensitivity was defined as a return to baseline of the temperature-effect curve and the T10 value and was calculated according to the following equation:
[formula] in which T10^drug+PGE2 is the T10 after a drug in combination with PGE2, T10^PGE2 is the T10 after PGE2 alone, and T10^baseline is the T10 under control conditions. A % MPE value of 100 indicates a complete return to the baseline thermal sensitivity observed without the PGE2 injection. […] Test Method 2: Chronic Constriction Injury

Spraque-Dawley rats [2] = assay: Chronic Constriction Injury-induced tactile hypersensitivity (von Frey); type: in vivo, rat; conditions: for % Reversal of CCl-induced tactile hypersensitivity: IP, one week after CCl surgery; for reversal of CCl-induced tactile hypersensitivity (in words): up to doses that produced observable signs of sedation and ataxia
Description: Rats were anesthetized with 3.5% halothane in O2 at 1 L/min and maintained with 1.5% halothane in O2 during surgery. A modified chronic sciatic nerve constriction injury (Mosconi & Kruger, 1996; Bennett & Xie, 1988) was produced by a cutaneous incision and a blunt dissection through the biceps femoris to expose the sciatic nerve. A PE 90 Polyethylene tubing (Intramedic, Clay Adams; Becton Dickinson Co.) cuff (2 mm length) was placed around the sciatic nerve at the level of the mid-thigh. The wound was closed in layers using 4-0 silk suture and wound clips. Testing was conducted 6-10 days after surgery.
Animals were placed in elevated wire cages and allowed 45-60 minutes to acclimate to the testing room. Baseline tactile sensitivity was assessed using a series of calibrated von Frey monofilaments (Stoelting; Wood Dale, Ill.) 0-3 days before surgery. Von Frey monofilaments were applied to the mid-plantar hind paw in sequential ascending or descending order, as necessary, to hover as closely as possible to the threshold of responses. The threshold was indicated by the lowest force that evoked a brisk withdrawal response to the stimuli. Thus, a withdrawal response led to the presentation of the next lighter stimulus and the lack of a withdrawal response led to the presentation of the next stronger stimulus. Rats with baseline thresholds <10 g force were excluded from the study. […] Under cumulative dosing conditions, compounds were administered IP every 30 minutes with the cumulative dose increasing in ½ log unit increments. Tactile hypersensitivity was assessed 20-30 minutes following each drug administration.
Test Method 2 Data Analysis—The 50% threshold values (in gm force) estimated by the Dixon non-parametric test (Chaplan et al, 1994) was calculated and fifteen-grams of force was used as the maximal force. Dose-effect curves were generated for each experimental condition for each rat. Individual tactile hypersensitivity threshold values were averaged to provide a mean (±1 SEM). Reversal of tactile hypersensitivity was defined as a return to baseline tactile sensitivity and was calculated according to the following equation:
(§4) [formula] in which 50%^drug+CCl is the 50% value after compound in animals approximately one week after CCl surgery, 50%^CCl is the 50% value approximately one week after CCl surgery alone, and 50%^baseline is the 50% value before CCl surgery. Maximal effect of 100% reversal represents a return to the mean pre-operative threshold value for subjects in that experimental condition. Test Method 3: Scheduled-Controlled Responding.

[3] = test system: cingulate and retrosplenial cortices of mice and rats; conditions: cited from earlier work
Spraque-Dawley rats [4] = assay: Observable signs of sedation and ataxia
Spraque-Dawley rats [5] = assay: Warm-water tail withdrawal combination studies with morphine; type: in vivo, rat; conditions: 30 min before testing
Method: as §1
Combination compound studies. […] Compounds were administered IP at the same time 30 min before testing.
as §3, with “equation: […]” for “equation:”

Spraque-Dawley rats [6] = type: in vivo, rat
Method: as §1, §2
Compounds were administered IP at the same time as PGE2, which was administered 30 min before testing.
as §3, with “equation: […]” for “equation:”

Spraque-Dawley rats [7] = assay: Scheduled-controlled responding (operant responding, food presentation); conditions: for Operant responding: response rate as a percent of control: IP; for rates of responding (in words): schedule of food presentation, Compound A IP or PO at doses that reversed hypersensitivity
Description: as §4
Rats were trained under a multiple-cycle procedure during experimental sessions conducted five days each week. Each training cycle consisted of a 1-min pretreatment period followed by a 10-min response period. During the pretreatment period, stimulus lights were not illuminated, and responding had no scheduled consequences. During the response period, the left or right stimulus lights were illuminated (counterbalanced among subjects), the response lever was extended and subjects could respond under a fixed ratio 30 schedule of food presentation. Training sessions consisted of 3 consecutive cycles. Testing sessions were identical to training sessions except that a single dose of drug was administered at the start of the first cycle.
Data analysis. Operant response rates from individual animals were averaged for the three cycles during test sessions and were converted to percent of control response rates using the average rate from the previous training day as the control value (i.e., average of three cycles). Data are presented as the mean (±1 SEM) response rate as a percent of control.

[8] = test system: rats trained to discriminate between saline and PCP; conditions: cited from earlier work
monkeys = conditions: cited from earlier work
[9] = IP, CCl-induced tactile hypersensitivity study
[10] = IP, PGE2-induced thermal hypersensitivity study

## O=C(O)[C@H]1C[C@@H](CP(=O)(O)O)CCN1 (relative stereo) [CGS-19755, cis-4-phosphonomethyl-2-piperidine carboxylic acid]
Spraque-Dawley rats [1]; IP, 3 mg/kg
  % MPE (reversal of PGE2-induced thermal hypersensitivity): 9%
Spraque-Dawley rats [1]; IP, 10 mg/kg
  % MPE (reversal of PGE2-induced thermal hypersensitivity): 25%
Spraque-Dawley rats [1]; IP, 30 mg/kg
  % MPE (reversal of PGE2-induced thermal hypersensitivity): 9%
Spraque-Dawley rats [2]; cumulative dose 3 mg/kg
  % Reversal of CCl-induced tactile hypersensitivity: −9%
Spraque-Dawley rats [2]; cumulative dose 10 mg/kg
  % Reversal of CCl-induced tactile hypersensitivity: −5%
Spraque-Dawley rats [2]; cumulative dose 30 mg/kg
  % Reversal of CCl-induced tactile hypersensitivity: −17%
Spraque-Dawley rats [2]
  reversal of CCl-induced tactile hypersensitivity (in words): none of the comparative compounds produced any reversal
[3]; cingulate and retrosplenial cortices of mice and rats
  vacuolization (in words): caused vacuolization at behaviorally effective doses
[3]; mice and rats, behaviorly effective doses
  effectiveness/vacuolization ratio: 1
Spraque-Dawley rats [4]; [9]
  doses that produced observable signs of sedation and ataxia: < 30 mg/kg

## O=c1c2c(c1=O)N(Cc1nnn[nH]1)CCCN2 [Compound B, 2-[(1H-Tetrazol-5-yl)methyl]-2,6-diazabicyclo[5.2.0]-non-1-(7)-ene-8,9-dione]
Spraque-Dawley rats [1]; PO, 3 mg/kg
  % MPE (reversal of PGE2-induced thermal hypersensitivity): 16%
Spraque-Dawley rats [1]; PO, 10 mg/kg
  % MPE (reversal of PGE2-induced thermal hypersensitivity): 92%
Spraque-Dawley rats [1]; PO, 30 mg/kg
  % MPE (reversal of PGE2-induced thermal hypersensitivity): 101%
Spraque-Dawley rats [1]; rat, in vivo
  reversal of PGE2-induced thermal hypersensitivity (in words): full reversal
Spraque-Dawley rats [2]; cumulative dose 1 mg/kg
  % Reversal of CCl-induced tactile hypersensitivity: 13%
Spraque-Dawley rats [2]; cumulative dose 3 mg/kg
  % Reversal of CCl-induced tactile hypersensitivity: 14%
Spraque-Dawley rats [2]; cumulative dose 10 mg/kg, 10 mg/kg
  % Reversal of CCl-induced tactile hypersensitivity: 40%
Spraque-Dawley rats [2]; cumulative dose 30 mg/kg
  % Reversal of CCl-induced tactile hypersensitivity: 12%
Spraque-Dawley rats [4]; doses used in the CCl-induced tactile hypersensitivity study, IP
  sedation or ataxia: not associated with sedation or ataxia

## CN1CC[C@]23c4c5ccc(O)c4O[C@H]2[C@@H](O)C=C[C@H]3[C@H]1C5 [Morphine, morphine]
Spraque-Dawley rats [5]; morphine 5.6 mg/kg IP
  Change from Baseline (T10): +2.3
Spraque-Dawley rats [6]; rat, in vivo
  Change from Baseline (T10): +0.3

## C[C@]12N[C@H](Cc3ccccc31)c1ccccc12 [dizocilpine]
Spraque-Dawley rats [1]; IP, 0.3 mg/kg
  % MPE (reversal of PGE2-induced thermal hypersensitivity): 18%
Spraque-Dawley rats [7]; 0.1 mg/kg
  Operant responding: response rate as a percent of control: 63%
Spraque-Dawley rats [7]; 0.3 mg/kg
  Operant responding: response rate as a percent of control: 16%
Spraque-Dawley rats [7]
  rates of responding (in words): dose-dependently decreased rates of responding
[8]
  substitution for the PCP-like discriminative stimulus effects: substitute for the PCP-like discriminative stimulus effects
Spraque-Dawley rats [4]; [10]
  doses that produced observable signs of sedation and ataxia: < 0.3 mg/kg

## CC(C(O)c1ccc(O)cc1)N1CCC(Cc2ccccc2)CC1 (centres unmarked) [ifenfrodil, ifenprodil]
Spraque-Dawley rats [1]; IP, 10 mg/kg
  % MPE (reversal of PGE2-induced thermal hypersensitivity): 1%
Spraque-Dawley rats [1]; IP, 30 mg/kg
  % MPE (reversal of PGE2-induced thermal hypersensitivity): 14%

## CNC1(c2ccccc2Cl)CCCCC1=O (centres unmarked) [ketamine]
Spraque-Dawley rats [1]; IP, 10 mg/kg
  % MPE (reversal of PGE2-induced thermal hypersensitivity): 14%
Spraque-Dawley rats [1]; IP, 18 mg/kg
  % MPE (reversal of PGE2-induced thermal hypersensitivity): 9%
Spraque-Dawley rats [5]; 18.0 mg/kg IP
  Change from Baseline (T10): −0.3
Spraque-Dawley rats [6]; 18.0 mg/kg IP with PGE2, PGE2 + vehicle −5.6
  Change from Baseline (T10): −5.5
[8]
  substitution for the PCP-like discriminative stimulus effects: substitute for the PCP-like discriminative stimulus effects

## CC12CC3CC(C)(C1)CC(N)(C3)C2 [memantine]
Spraque-Dawley rats [1]; IP, 3 mg/kg
  % MPE (reversal of PGE2-induced thermal hypersensitivity): 13%
Spraque-Dawley rats [1]; IP, 10 mg/kg
  % MPE (reversal of PGE2-induced thermal hypersensitivity): 15%
Spraque-Dawley rats [1]; PO, 10 mg/kg
  % MPE (reversal of PGE2-induced thermal hypersensitivity): −1%
Spraque-Dawley rats [1]; PO, 30 mg/kg
  % MPE (reversal of PGE2-induced thermal hypersensitivity): 11%
Spraque-Dawley rats [1]; PO, 100 mg/kg
  % MPE (reversal of PGE2-induced thermal hypersensitivity): 5%
Spraque-Dawley rats [2]; cumulative dose 3 mg/kg
  % Reversal of CCl-induced tactile hypersensitivity: −25%
Spraque-Dawley rats [2]; cumulative dose 10 mg/kg
  % Reversal of CCl-induced tactile hypersensitivity: −45%
Spraque-Dawley rats [2]
  reversal of CCl-induced tactile hypersensitivity (in words): none of the comparative compounds produced any reversal
Spraque-Dawley rats [7]; 3 mg/kg
  Operant responding: response rate as a percent of control: 93%
Spraque-Dawley rats [7]; 10 mg/kg
  Operant responding: response rate as a percent of control: 2%
Spraque-Dawley rats [7]
  rates of responding (in words): dose-dependently decreased rates of responding
monkeys
  self-administration: maintains self-administration
[8]
  substitution for the PCP-like discriminative stimulus effects: substitute for the PCP-like discriminative stimulus effects
Spraque-Dawley rats [4]; [9]
  doses that produced observable signs of sedation and ataxia: < 10 mg/kg
Spraque-Dawley rats [4]; [10]
  doses that produced observable signs of sedation and ataxia: < 10 mg/kg
Spraque-Dawley rats [4]; PO, PGE2-induced thermal hypersensitivity study
  doses that produced observable signs of sedation and ataxia: < 100 mg/kg
